Results published in patent publication US6750212B2, “Photochemotherapeutic compositions” (PhotoCure AS, priority 1997, dated 2004).

Assays:
[1] = system: WiDr human colonic carcinoma; assay: PDT of WiDr human colonic carcinoma in nude mice, laser light 3 hours after drug, tumor regression/regrowth time; format: in vivo, Balb/c nu/nu nude mice
Description: 5-aminolevulinic acid (ALA) hydrochloride was purchased from Sigma Chemical Company (St. Louis, Mo.). ALA was freshly dissolved in isotonic saline and given intraperitoneally to mice. PHOTOFRIN® vascular stroma-localizing photosensitizer was obtained from Quadra Logic Technologies (Vancouver, Canada). The solution of PHOTOFRIN® vascular stroma-localizing photosensitizer was made up in isotonic solution containing 5% dextrose and given to mice intravenously via the tail vein.
Female Balb/c nu/nu nude mice were obtained from The Animal Department, The Norwegian Radium Hospital, housed 10 per cage and kept under specific-pathogen-free conditions. The mice were 6 weeks old and weighed 20-22 g when the experiments started. The WiDr human colonic carcinoma, used in the present study, was propagated by serial transplantation into the nude mice. Non-necrotic tumor material for inoculation was obtained by sterile dissection of large flange tumors from syngeneic mice. Macroscopically viable tumor tissue was gently minced with a pair of scissors and forced repeatedly through sterile needles of diminishing sizes from 19-gauge to 25-gauge to make a tumor-tissue suspension, 0.02 ml of which was then injected into the dorsal side of the right hind foot of each mouse. The rate of successful transplantations was nearly 100% in the present experiments. […] The tumor volume was calculated using the following formula: […]
where D1, D2 and D3 are three orthogonal diameters of the tumors which were measured daily by a caliper.
Unanesthetized mice were fixed in Lucite jigs specially designed for irradiation. The tumor area was exposed to red light from a dicyanomethylane-2-methyl-6-(p-dimethylaminostyryl)-4 H-pyran (DCM) dye laser pumped by a 5W argon ion laser (Spectra Physics, 164). The tuning range was 610-690 nm. The dye laser was tuned at 632 for both ALA-derived PpIX and PHOTOFRIN®vascular stroma-localizing photosensitizer, the tuning being controlled by means of a monochromator. […]
Responses of the treated tumors were evaluated as described previously.

Colon carcinoma WiDr = assay: PDT of WiDr colon carcinoma in nude mice, Curelight broad-band lamp one hour after drug, regression/regrowth time; format: in vivo, Balb/c nu/nu nude mice; details: for anti-tumour effect after PDT: Example 5.2, FIG. 5, ALA-methyl ester 273 mg/kg i.p. and/or A1PcS2a 1 mg/kg i.v.; for effect on tumor growth after PDT: Example 5.1, FIG. 4, 5-ALA 250 mg/kg i.p. and/or chlorin e6 1 mg/kg i.v., lamp 161 mW/cm^2 15 minutes, one hour after injection
Procedure: 5-ALA (ALA) and ALA-Methyl ester (ME) were dissolved in isotonic saline to a final concentration of […].
ALA-Butyl ester (BU) was dissolved in a small amouont of ethanol and diluted further in isotonic saline to a final concentration of […] (final ethanol concentration was 2% v/v).
Aluminium phthalocyanine di-sulfonate (A1PcS2a) (Porphyrin Products Inc.) dissolved in a few drops of 1M NaOH and diluted in phosphate buffered saline (PBS, 10 MM Na-phosphate pH 7.4/150 mM NaCl) to a final concentration of 0.25 mg/ml.
Chlorin e6 (e6)(Porphyrin Products Inc.) was dissolved in PBS to a final concentration of 0.25 mg/ml.
ALA, ALA methyl ester or ALA butyl ester were administered intraperitoneally (i.p.), whereas the sensitizers were injected intravenously (i.v.).
All animals received the same amount of ALA (1.5 mmole), either as the free acid or in the form of an ester. […]
Suspensions of the human tumour (Colon carcinoma WiDr-propagated by serial transplantation) was prepared from non-necrotic areas of the respective tumours and injected (20 μl) into the right hind foot of each mouse. […] Injection volume: 100 μl per mouse (approx. 25 g bodyweight).
Illumination occurred one hour after injection of the drugs instead of three hours that was used in previous examples. In contrast to previous examples, a broad-band lamp that covers the range of 600 to 700 nm (Curelight, patent applied for by PhotoCure AS) was used instead of the laser. This was because the light should cover combinations of phthalocyanines (absorption maximum 670 nm) and protoporphyrin IX (absorption maximum 630 nm) induced by ALA or ALA-esters, respectively.
The average tumour volume in each group (mean ±SD) was calculated and plotted against time. The experiment was terminated when the tumor volume had reached 4-5 times the initial volume.
One hour after injection of the drugs the mice were irradiated using the Curelight broad-band lamp (161 mW/cm^2 for 15 minutes-144.9 J/cm^2).
Responses of the tumors were evaluated as regression/regrowth time. The size of the tumours were measured every second day and the tumour volumes calculated according to the formula in Example 2. The mice were sacrificed when the tumour volume had reached 5 times the initial volume. For each time point, the mean (and the standard deviation of the mean) tumour volume (n=4-5) were calculated. The data were then submitted to statistical analysis (Q-test/90% confidence interval) and extreme values were rejected.

[2] = system: Human rectal papillary villous adenomas; assay: Fluorescence localization in human rectal papillary villous adenomas by fluorescence microscopy; format: in vivo; details: 4.5 hours after oral administration of 60 mg/kg ALA; FIG. 3 B
Procedure: Human rectal papillary villous adenomas from 2 patients with severe dysplasia and with a diarrheal history for some months before diagnosis were sampled 44 hours after intravenous injection of 2 mg/kg body weight PHOTOFRIN® vascular stroma-localizing photosensitizer or 4.5 hours after oral administration of 60 mg/kg ALA. The samples were immediately immersed in liquid nitrogen, then mounted in medium (Tissue Tek II embedding compound: BDH, Poole, UK). Frozen tissue sections were cut with a cryostat to a thickness of 8 Am and mounted on clean glass slides. The fluorescence localization patterns of ALA-induced PpIX and PHOTOFRIN were studied by fluorescence microscopy. The fluorescence microscopy was carried out with an Axioplan microscope (Zeiss, Germany). The filter combination comprised a 390-440 nm excitation filter, a 460 nm beam splitter and a >600 nm emission filter. The fluorescence images were recorded by a CCD camera (Astromed CCD 3200, Cambridge, UK) and an image processing unit (Astromed/Visilog, PC 486DX2 66 MHz VL).

[3] = Example 3, FIG. 2, ALA 250 mg/kg i.p. (632 nm) and/or m-THPC 75 μg/kg i.v. (652 nm), laser light 3 hours after drug
[4] = Example 5.4, FIG. 7, 5-ALA butyl ester 338 mg/kg i.p. and/or A1PcS2a 1 mg/kg i.v., lamp one hour after injection
[5] = Example 5.5, FIG. 8, 5-ALA methyl ester 273 mg/kg i.p. and/or A1PcS4 1 mg/kg i.v., lamp one hour after injection

Compound: Oc1cccc(-c2c3nc(c(-c4cccc(O)c4)c4ccc([nH]4)c(-c4cccc(O)c4)c4nc(c(-c5cccc(O)c5)c5ccc2[nH]5)CC4)C=C3)c1 [m-THPC, tetra(meso-hydroxyphenyl)chlorin]
- effect on tumor growth after PDT [1, 3]: no effect

Compound: Aluminium phthalocyanine di-sulfonate [A1PcS2a]
- anti-tumour effect after PDT (Colon carcinoma WiDr; lamp one hour after injection): a slight effect
- effect on tumour growth after PDT (Colon carcinoma WiDr; [4]): immediate effect
- time to 4× initial tumour volume (Colon carcinoma WiDr; Example 5.4, FIG. 7, A1PcS2a 1 mg/kg i.v. alone, lamp one hour after injection): ≤ 14 days

Compound: COC(=O)CCC(=O)CN [ALA-methyl ester, 5-ALA methyl ester]
- anti-tumour effect after PDT (Colon carcinoma WiDr; lamp one hour after injection): had no anti-tumour effect
- effect on tumour growth after PDT (Colon carcinoma WiDr; [5]): did not have any effect on tumor growth

Compound: CCCCOC(=O)CCC(=O)CN [ALA butyl ester, 5-ALA butyl ester]
- time for tumours to reach 4 times the initial volume (Colon carcinoma WiDr; Example 5.3, FIG. 6, 5-ALA butyl ester 338 mg/kg i.p. alone, lamp one hour after injection): 11 days
- effect on tumour growth after PDT (Colon carcinoma WiDr; [4]): almost no effect

Compound: NCC(=O)CCC(=O)O [ALA, 5-aminolevulinic acid]
- effect on tumor growth after PDT ([1]; Example 2, FIG. 1, ALA 250 mg/kg i.p. and/or PHOTOFRIN 1 mg/kg i.v., laser 632 nm, 150 mW/cm^2 for 15 min, 3 hours after drug): had an effect on the tumor growth
- effect on tumor growth after PDT [1, 3]: had an effect on the tumor growth
- effect on tumor growth after PDT (Colon carcinoma WiDr): had no effect
- fluorescence localization of ALA-induced porphyrins in tumor tissue [2]: almost entirely localized within the tumor cells

Compound: Aluminium phthalocyanine tetra-sulfonate [A1PcS4]
- effect on tumour growth after PDT (Colon carcinoma WiDr; Example 5.3, FIG. 6, 5-ALA butyl ester 338 mg/kg i.p. and/or A1PcS4 1 mg/kg i.v., lamp one hour after injection): moderate effect on tumour growth
- effect on tumour growth after PDT (Colon carcinoma WiDr; Example 5.3, FIG. 6, high dose A1PcS4 5 mg/kg i.v. alone, lamp one hour after injection): strongly delayed growth
- effect on tumour growth after PDT (Colon carcinoma WiDr; [5]): intermediate effect

Compound: C=Cc1c(C)c2cc3nc(c(CC(=O)O)c4[nH]c(cc5nc(cc1[nH]2)C(C)=C5CC)c(C)c4C(=O)O)[C@@H](CCC(=O)O)[C@@H]3C [chlorin e6]
- effect on tumor growth after PDT (Colon carcinoma WiDr): had no effect
